Data on 24 molecules can be found in ChEMBL document CHEMBL1130304, “Hemisynthesis of rhazinilam analogues: structure - activity relationships on tubulin-microtubule system” (Bioorg Med Chem Lett, 1997).

As usually defined, the IC50 is the concentration needed to halve the response being measured. Higher therefore signals weaker potency.

Where “and” joins values, the source holds several entries; their conditions need not be identical. Equal values may be shown once. Calls of active or inactive are those of the source. The rule behind the calls is not given here.

Test [1] is described as follows: Inhibitory concentration of compound was determined against KB cells; IA means Inactive. The format is functional, cell-based, Homo sapiens.
Test [2] is described as follows: Compound was tested for relative activity against the cold-induced disassembly of microtubules with respect to rhazinilam (IC50=2*10e-6M); IA means Inactive. The format is functional.
Test [3] can be described thus: Relative activity against the cold-induced disassembly of microtubules with respect to rhazinilam (IC50=2*10e-6M). Format: functional.
A short description of test [4]: Inhibitory concentration of compound was determined against KB cells. Format: functional, cell-based, Homo sapiens.
The nature of test [5]: Compound was tested for relative activity against the cold-induced disassembly of microtubules with respect to rhazinilam (IC50=2*10e-6M); Experiment 1. The format is functional.
The nature of test [6]: Compound was tested for relative activity against the cold-induced disassembly of microtubules with respect to rhazinilam (IC50=2*10e-6M); Experimemt 2. The format is functional.
A short description of test [7]: Inhibitory concentration of compound was determined against disassembly of microtubules. The format is functional.
Test [8] in a line: Compound was tested for relative activity against the cold-induced disassembly of microtubules. Format: functional.
The nature of test [9]: Compound was tested for relative activity against the cold-induced disassembly of microtubules; IA means Inactive. Format: functional.

In the case of `CC[C@]12CCCn3ccc(c31)-c1cc(NC(C)=O)ccc1NC(=O)CC2`, the IC50 result in test [1] is listed as “Not Active”. Besides, the Ratio result in test [2] was “inactive”. Regarding `CC[C@@]12CCCNc3ccccc3-c3ccn(c31)CCC2`, the Ratio in test [3] came out at 20. In test [4], this molecule came in with an IC50 of 1 µM. For `CC[C@@]12CCCN3CC[C@@]4(C(=Nc5ccccc54)CC1)[C@H]32`, the Ratio entry in [2] is “inactive”.

Regarding `CC[C@@]12CCCN(C(C)=O)c3ccccc3-c3ccn(c31)CCC2`, in test [1], the IC50 entry was “Not Active”. Moreover, the Ratio in test [3] came out at 80. As to `CC[C@]12CCCn3c(C(=O)C(Cl)(Cl)Cl)cc(c31)-c1ccccc1NC(=O)CC2`, the Ratio in test [3] amounted to 8. Also, in test [4], half-maximal inhibition (IC50) required 25 µM.

Regarding `CC[C@]12CCCn3ccc(c31)-c1ccccc1N(C(=O)OC(C)(C)C)C(=O)CC2`, the IC50 entry in test [1] is given as “Not Active”. Besides, the Ratio in test [3] amounted to 80.

Regarding `CC[C@@]12CCCN3C(=O)C=C(c4ccccc4NC(=O)CC1)[C@]32O`, in [2], the Ratio entry is “inactive”.

As for `CC[C@]12CCCn3c(C=O)cc(c31)-c1ccccc1NC(=O)CC2`, in [3], the Ratio worked out at 6. Consider `CC[C@]12CCCn3ccc(c31)-c1ccccc1N(CC(=O)OCc1ccccc1)C(=O)CC2`, for which the IC50 entry in test [1] is “Not Active”. Besides, the Ratio in [3] was determined as 80. For the molecule `CC[C@]12CCCn3c(C(=O)O)cc(c31)-c1ccccc1NC(=O)CC2`, the Ratio is 5 in test [5]; 2 and 3 in [6]. This molecule displayed an IC50 in [4] of 75 µM.

`CC[C@@]12CCC(=O)Nc3ccccc3-c3ccn(c31)C(O)CC2` (stereo not given in full): the Ratio in [3] is 15. This molecule also returned a half-maximal inhibitory concentration (IC50) in test [4] of 3 µM. For `CC[C@]12CCCn3c(C(=O)C(F)(F)F)cc(c31)-c1ccccc1NC(=O)CC2`, in test [3], the Ratio amounted to 4. This molecule yielded a half-maximal inhibitory concentration (IC50) in [4] of 15 µM. As to `CC[C@@]12CCCN(C(=O)OC(C)(C)C)c3ccccc3-c3ccn(c31)CCC2`, the Ratio in [3] came out at 80. Moreover, the IC50 in test [4] worked out at 10 µM. Turning to `CC[C@]12CCCn3ccc(c31)-c1ccccc1/N=C(/S)CC2`, in test [3], the Ratio is 50. Besides, in test [4], the IC50 amounted to 10 µM. As for `CC[C@]1(CCC(=O)O)CCCn2ccc(-c3ccccc3N)c21`, the Ratio entry in [2] is “inactive”. With `CC[C@]12CCCn3ccc(c31)-c1ccccc1N(C)C(=O)CC2`, the Ratio in [3] amounted to 4. The IC50 in test [4] is 60 µM. Regarding `CC[C@]12CCCn3ccc(c31)-c1ccccc1N(CC(=O)O)C(=O)CC2`, in test [1], the IC50 result was “Not Active”. Moreover, the Ratio in test [3] was found to be 80. Regarding `CC[C@]12CCCn3c(C(=O)OCc4ccc(OC)c(OC)c4OC)cc(c31)-c1ccccc1NC(=O)CC2`, the Ratio in test [3] is 7. In test [4], the IC50 came to 20 µM. Regarding `CC[C@]12CCCn3c(C=O)c(C=O)c(c31)-c1ccccc1NC(=O)CC2`, the Ratio entry in test [2] is “inactive”. For the molecule `CC[C@@]12CCC(=O)Nc3ccccc3-c3ccn(c31)C(=O)CC2` [RHAZINICINE], the Ratio in [3] is 10. This molecule also had an IC50 in test [4] of 3 µM. On to `CC[C@]12CCCn3c(C(=O)OC)cc(c31)-c1ccccc1NC(=O)CC2`, for which, in test [3], the Ratio amounted to 5. The same molecule showed an IC50 in test [4] of 4 µM.

In the case of `CC[C@]12CCCn3ccc(c31)-c1cc(Br)ccc1NC(=O)CC2`, in test [1], the IC50 entry is recorded as “Not Active”. In test [3], the Ratio was 100.

In the case of `CC[C@@]12CCCN3CC=C(c4ccccc4NC(=O)CC1)C32` (stereo not given in full), in test [2], the Ratio entry is “inactive”.

Turning to `CC[C@]12CCCn3ccc(c31)-c1ccccc1NC(=O)CC2` [RHAZINILAM], the IC50 was found to be 2 µM in test [7] and 0.5 µM in test [4]. Also, the Ratio in test [8] was found to be 1. Moreover, in [9], the Ratio entry was “inactive”.
